Assays:
[1] = system: IL-1β-stimulated GAG release, bovine chondrocyte pellets / ARC tissues; test: chondrocyte pellet culture model: GAG degradation; assay type: cell-based
Source text: (§1) Calf articular cartilage was obtained from the knee joints of eight to twelve month old animals and was processed within twenty-four hours after sacrifice. After removal of muscle and ligament, the cartilage was kept moist using phosphate buffer solution (PBS) to prevent tissue dehydration, and was aseptically peeled off from subchondral bone with a scalpel, and the cartilage pieces were further minced into smaller pieces (˜0.3-0.5×˜0.2-0.5 cm cubes). […] Chondrocytes were then enzymatically isolated from the tissue by incubation for overnight at 37° C. with gentle agitation in 0.2% collagenase in Dulbecco's modified eagle media (DMEM). After removal of tissue debris by filtration through cell strainer and the residual collagenase by 3× wash in PBS, cells were finally resuspended at a density of 2.5×10^6 cells/ml in chondrocyte medium. A 1 ml aliquot of the cell suspension was dispensed into either a 15 ml Falcon centrifuge tube or a 96 deep-well plate and centrifuged at 2000×g for five minutes. The chondrocyte pellets were incubated at 37° C. in a humidified atmosphere of 5% CO2 for two to three weeks with a medium change every other day.
(§2) As an alternative to using calf articular cartilage, a commercial Alginate Recovered Chondrocytes (ARC) system was also used (Articular Engineering, LLC (Northbrook, Ill.)). Use of the commercial system cut down on labor and time in producing chondrocyte pellet. This system produced cartilaginous tissue in vitro using bovine chondrocytes. The first step consisted of culturing chondrocytes in alginate under conditions optimal for the formation of a cell-associated matrix (CM). The second step allowed these cells with their CM, after recovery, to rapidly form and become integrated into a solid mass of cartilage on a porous insert within two weeks. This tissue is rich in cells surrounded by a cell-associated matrix that is degraded rapidly when the cells are exposed to IL-1. ARC tissues in 3 mm punches at delivery were first dispensed into a 96 deep-well plate, one punch per well, for compound treatment. The subsequent procedures were the same as those used for the chondrocyte pellets.
(§3) Chondrocyte pellets were washed once with 1 ml of Chondrocyte Stimulation Medium and equilibrated in the same medium at room temperature for fifteen to thirty minutes. Compounds were dissolved in H2O, Ethanol or dimethyl sulfoxide (DMSO) (10^−2 M) according to suppliers' instructions and further diluted with Chondrocyte Stimulation Medium to the required concentrations. DMSO concentrations in the culture media should not exceed 1%; this concentration of DMSO has no effect on cartilage proteoglycan metabolism in response to cytokines.
[…] At the end of the incubation, media and pellets were harvested and frozen for further analysis. Pellets were also fixed as needed in 4% (w/v) paraformaldehyde in PBS for histology analysis.
Glycosaminoglycan (GAG) levels in the culture media were determined by measuring the amount of polyanionic material reacting with 1,9-dimethylmethylene blue (DME) as detected by absorbance at 525 nm, using shark chondroitin sulfate as a standard. The DME blue dye-binding solution was prepared by dissolving 16 mg of DME blue in a solution containing 0.304% glycine, 0.23% sodium chloride (NaCl), 9.5 mM hydrochloric acid (HCl), pH=3.0 with absorbance at 525 equal to 0.31. Proteoglycans and proteoglycan metabolites in chondrocyte pellet were released by digesting the pellet with 125 μg/ml of papain in 0.1 M PBS, pH 6.0, 5 mM cysteine, 5 mM ethylene-diamine-tetra-acetic acid disodium salt (Na2EDTA) at 50° C. for overnight. Results are reported as either micrograms of GAG per milliliter or percent of total GAG released into culture medium.

chondrocytes = assay type: cell-based; settings: bovine, 100000 nM
Source text: as §1, §2, §3
The pellets were first treated with compounds at desired concentrations at 37° C. for one hour and then incubated for three to five days in the absence or presence of 10 ng/ml of IL-1β. At the end of the incubation, media and pellets were harvested and frozen for further analysis. Pellets were also fixed as needed in 4% (w/v) paraformaldehyde in PBS for histology analysis.
The LDH activity was determined colorimetrically in an enzymatic test based on the conversion of lactic acid to pyruvate in the presence of chromagenic substrate tetrazolium salt INT that was reduced to formazan.

[2] = system: rabbit anterior cruciate ligament transection (ACLT) model of osteoarthritis; test: ACLT model, SCIO-469 (Example VIII); assay type: in vivo
Experimental: The formulation of the highest concentration was diluted into the lower concentrations using ORTHOVISC®. Once prepared, the formulations were stored at 4° C. The study design consisted of an n=12 per group. The SCIO-469 (SD 469) was suspended in ORTHOVISC®. A total of 160 μl was injected at each administration. The intra-articular injections were performed according to the ACLT model. However, control groups either received no injections or received the ORTHOVISC® vehicle delivered once weekly for three weeks. Euthanasia was performed according to the ACLT model. However, the animals were euthanized nine weeks post ACLT with an intravenous injection of pentobarbital (60 mg/kg). […] At the time of sacrifice the following parameters were evaluated grossly (the scale follows in parenthesis): Each parameter was given a score. The combination of all parameters gave a Total Score (0-52). […] Lastly, an All Cartilage Effects Score was obtained. The score for All Cartilage Effects ranges from 0 to 40. The grades that compose this parameter are trochlear groove thickness and erosion, all the grades in All Condylar Effects, and all grades listed under tibial plateau. A higher score indicates more damage to the joint. A lower score indicates less damage or more cartilage preservation to the joint. Individual results for each parameter assessed were tabulated (data not shown).

[3] = drug content in the joints (Example VIII); assay type: in vivo, rabbit; settings: at the time of analysis
Source text: For each treatment group, four animals were included to provide pharmacokinetic data (available drug levels in blood and tissue). Prior to treatment administration, blood samples were collected and frozen for analysis. After gross observation, the joints were removed and frozen for analysis.

C[C@@H]1CN(Cc2ccc(F)cc2)[C@@H](C)CN1C(=O)c1cc2c(C(=O)C(=O)N(C)C)cn(C)c2cc1Cl [SCIO-469 (SD 469)]
inhibition of GAG degradation ([1]; ARC tissues stimulated with IL-1β): no effect
GAG Release ([1]; Pellet Assay): No effect
increase of LDH level (chondrocytes): 121%
All Cartilage Effects (0-40), mean ([2]; 0.5 μg/kg): 12.75
All Condylar Effects (0-18), mean ([2]; 0.5 μg/kg): 6.45
All Tibial Plateau Effects (0-24), mean ([2]; 0.5 μg/kg): 7.20
All Trochlear Groove Effects (0-10), mean ([2]; 0.5 μg/kg): 8.40
Femoral Condyle % Surface Area Erosion (Lateral), mean score ([2]; 0.5 μg/kg): 2.80
Femoral Condyle % Surface Area Erosion (Medial), mean score ([2]; 0.5 μg/kg): 0.90
Femoral Condyle Depth of Erosion (Lateral), mean score ([2]; 0.5 μg/kg): 2.00
Femoral Condyle Depth of Erosion (Medial), mean score ([2]; 0.5 μg/kg): 0.55
Femoral Condyle Presence of Clefts, mean score ([2]; 0.5 μg/kg): 0.20
Tibial Plateau # of Osteophytes (Lateral), mean score ([2]; 0.5 μg/kg): 1.50
Tibial Plateau # of Osteophytes (Medial), mean score ([2]; 0.5 μg/kg): 1.80
Tibial Plateau % Surface Area Erosion (Lateral), mean score ([2]; 0.5 μg/kg): 2.00
Tibial Plateau % Surface Area Erosion (Medial), mean score ([2]; 0.5 μg/kg): 0
Tibial Plateau Depth of Erosion (Lateral), mean score ([2]; 0.5 μg/kg): 1.90
Tibial Plateau Depth of Erosion (Medial), mean score ([2]; 0.5 μg/kg): 0
Tibial Plateau Presence of Clefts (Lateral), mean score ([2]; 0.5 μg/kg): 0
Tibial Plateau Presence of Clefts (Medial), mean score ([2]; 0.5 μg/kg): 0
Total Score (0-52), mean ([2]; 0.5 μg/kg): 22.05
Trochlear Groove # of Osteophytes, mean score ([2]; 0.5 μg/kg): 3.00
Trochlear Groove Erosion of Cartilage, mean score ([2]; 0.5 μg/kg): 2.40
Trochlear Groove Osteophyte Size, mean score ([2]; 0.5 μg/kg): 3.00
Trochlear Groove Thickening, mean score ([2]; 0.5 μg/kg): 0
All Cartilage Effects (0-40), mean ([2]; 5 μg/kg): 13.17
All Condylar Effects (0-18), mean ([2]; 5 μg/kg): 6.50
All Tibial Plateau Effects (0-24), mean ([2]; 5 μg/kg): 7.08
All Trochlear Groove Effects (0-10), mean ([2]; 5 μg/kg): 8.08
Femoral Condyle % Surface Area Erosion (Lateral), mean score ([2]; 5 μg/kg): 1.67
Femoral Condyle % Surface Area Erosion (Medial), mean score ([2]; 5 μg/kg): 1.67
Femoral Condyle Depth of Erosion (Lateral), mean score ([2]; 5 μg/kg): 1.96
Femoral Condyle Depth of Erosion (Medial), mean score ([2]; 5 μg/kg): 1.21
Femoral Condyle Presence of Clefts, mean score ([2]; 5 μg/kg): 0
Tibial Plateau # of Osteophytes (Lateral), mean score ([2]; 5 μg/kg): 1.08
Tibial Plateau # of Osteophytes (Medial), mean score ([2]; 5 μg/kg): 1.67
Tibial Plateau % Surface Area Erosion (Lateral), mean score ([2]; 5 μg/kg): 1.50
Tibial Plateau % Surface Area Erosion (Medial), mean score ([2]; 5 μg/kg): 0.58
Tibial Plateau Depth of Erosion (Lateral), mean score ([2]; 5 μg/kg): 1.63
Tibial Plateau Depth of Erosion (Medial), mean score ([2]; 5 μg/kg): 0.63
Tibial Plateau Presence of Clefts (Lateral), mean score ([2]; 5 μg/kg): 0
Tibial Plateau Presence of Clefts (Medial), mean score ([2]; 5 μg/kg): 0
Total Score (0-52), mean ([2]; 5 μg/kg): 21.67
Trochlear Groove # of Osteophytes, mean score ([2]; 5 μg/kg): 2.83
Trochlear Groove Erosion of Cartilage, mean score ([2]; 5 μg/kg): 2.17
Trochlear Groove Osteophyte Size, mean score ([2]; 5 μg/kg): 2.92
Trochlear Groove Thickening, mean score ([2]; 5 μg/kg): 0.17
All Cartilage Effects (0-40), mean ([2]; 50 μg/kg): 8.32
All Condylar Effects (0-18), mean ([2]; 50 μg/kg): 4.18
All Tibial Plateau Effects (0-24), mean ([2]; 50 μg/kg): 5.41
All Trochlear Groove Effects (0-10), mean ([2]; 50 μg/kg): 6.91
Femoral Condyle % Surface Area Erosion (Lateral), mean score ([2]; 50 μg/kg): 1.18
Femoral Condyle % Surface Area Erosion (Medial), mean score ([2]; 50 μg/kg): 1.27
Femoral Condyle Depth of Erosion (Lateral), mean score ([2]; 50 μg/kg): 1.05
Femoral Condyle Depth of Erosion (Medial), mean score ([2]; 50 μg/kg): 0.68
Femoral Condyle Presence of Clefts, mean score ([2]; 50 μg/kg): 0
Tibial Plateau # of Osteophytes (Lateral), mean score ([2]; 50 μg/kg): 0.91
Tibial Plateau # of Osteophytes (Medial), mean score ([2]; 50 μg/kg): 1.73
Tibial Plateau % Surface Area Erosion (Lateral), mean score ([2]; 50 μg/kg): 1.09
Tibial Plateau % Surface Area Erosion (Medial), mean score ([2]; 50 μg/kg): 0.36
Tibial Plateau Depth of Erosion (Lateral), mean score ([2]; 50 μg/kg): 1.14
Tibial Plateau Depth of Erosion (Medial), mean score ([2]; 50 μg/kg): 0.18
Tibial Plateau Presence of Clefts (Lateral), mean score ([2]; 50 μg/kg): 0
Tibial Plateau Presence of Clefts (Medial), mean score ([2]; 50 μg/kg): 0
Total Score (0-52), mean ([2]; 50 μg/kg): 16.50
Trochlear Groove # of Osteophytes, mean score ([2]; 50 μg/kg): 2.64
Trochlear Groove Erosion of Cartilage, mean score ([2]; 50 μg/kg): 1.36
Trochlear Groove Osteophyte Size, mean score ([2]; 50 μg/kg): 2.91
Trochlear Groove Thickening, mean score ([2]; 50 μg/kg): 0
utility in ACLT model, gross observations ([2]; 0.5, 5 or 50 μg/kg, direct injection into a diseased joint): did not demonstrate the utility
drug content in the joints [3]: no drug could be detected
